In patent publication US8829014B2, “Thiazole and thiophene analogues, and their use in treating autoimmune diseases and cancers” (Board of Supervisors of Louisiana State University and …, priority 2006, dated 2014):
Marks after values point to notes of the source that are not given here.

What was measured:
Format in all cases: cell-based
NF-κB = experiment: TNF-α-induced NF-κB-dependent luciferase expression in HEK cells; parameters: NF-κB % inhibition: concentration or dose not given beside the values; conditions: TNF-α-induced; compound added 1 h before inducer, luciferase 24 h later; normalized to DMSO vehicle
AP-1 = experiment: PMA-induced AP-1 luciferase expression in HEK cells; conditions: PMA-induced; compound added 1 h before inducer, luciferase 24 h later; normalized to DMSO vehicle
[1] = tested on: vascular smooth muscle cells (VSMC); experiment: LDH release cytotoxicity in VSMC; conditions: VSMC, 10 μM, 48 h, relative to vehicle
Procedure: (§1) Additional compounds have also been tested for their ability to inhibit both TNF-α-induced NF-κB—expression and PMA-induced AP-1 expression. In both tests, the compound was added for 1 h, then the appropriate inducer was added, and luciferase activity was monitored 24 h later. Values were then normalized to the vehicle control, DMSO. Following the initial luciferase screens, studies were conducted to assess the cytotoxicity of the compounds in normal cells such as VSMC, HUVEC, or HPT cells. Human umbilical vein endothelial cells (HUVEC) represent the normal endothelium, vascular smooth muscle cells (VSMC) were represented by cells from the adult rat aorta, and human proximal tubule (HPT) cells represent the normal proximal tubule in vivo. These cells were grown to near confluency in multi-well plates, and were then treated for 48 h with either vehicle (0.1% DMSO) or 10 μM of each drug candidate. Following treatment, the media from the VSMC and HUVEC incubations were removed, and the amount of lactate dehydrogenase (LDH) released into the medium was determined with a commercial kit. LDH is normally confined to the cytosol, and its release represents “leakiness” of the plasma membrane. LDH activity was expressed as % increase over vehicle-treated cells. In another assay of viability, the treated VSMC and HUVEC were removed by trypsinization and treated with trypan blue, a dye that is taken up only by dead cells. The number of both live and dead cells was counted using an automated cell viability analyzer. The % decrease in numbers of viable cells was determined. Toxicity in the treated HPT cells was determined by the ethidium homodimer (EthHD) uptake assay. EthHD is a fluorescent dye that is excluded from live cells, but is taken up by cells that have lost permeability barriers. Inside the cell, EthHD produces a strong fluorescent signal, which is proportional to the number of dead cells. Results were expressed as a % increase in cell death over vehicle-treated cells. The lead compounds were also tested in two pairs of cell lines from either the skin or prostate, one tumorigenic and one non-tumorigenic, to test for any differences in toxicity or heightened sensitivity in the tumorigenic lines. The cells were treated for 48 h with vehicle (0.1% DMSO) or 10 μM of each drug candidate. Following treatment, the viability of the cells was determined by the MTT assay. In this assay, the MTT dye is converted only in viable cells by intracellular enzymes to a colorimetric product that is quantitated by a microplate reader.
(§2) For the results in Table 13, cells were grown to near confluency in multi-well plates, then treated for 48 h with either vehicle (0.1% DMSO) or 10 μM of each drug candidate. Following treatment, the media from the VSMC and HUVEC incubations were removed, and the amount of lactate dehydrogenase (LDH) released into the medium was determined with a commercial kit and expressed as a % increase over vehicle-treated cells. HPT toxicity was determined by the ethidium homodimer (EthHD) uptake assay. Inside the cell, EthHD produces a strong fluorescent signal, which is proportional to the amount of cell death, expressed as a % increase in cell death over vehicle-treated cells. The lead compounds were also tested in two pairs of cell lines from the skin or prostate, one tumorigenic and one non-tumorigenic, to test for differing toxicity or heightened sensitivity in the tumorigenic lines. The cells were treated for 48 h with vehicle (0.1% DMSO) or 10 μM of each drug candidate, and the viability of the cells was determined by the MTT assay, expressed as a % decrease in viability compared to vehicle-treated cells. The in vivo inflammation model measured the % inhibition of rat paw edema induced by carageenan injection.

[2] = tested on: Human umbilical vein endothelial cells (HUVEC); experiment: LDH release cytotoxicity in HUVEC; conditions: HUVEC, 10 μM, 48 h, relative to vehicle
Procedure: as §1, §2

[3] = tested on: vascular smooth muscle cells (VSMC); experiment: Trypan blue viability count in VSMC; conditions: VSMC, 10 μM, 48 h, relative to vehicle
Procedure: as §1

[4] = tested on: Human umbilical vein endothelial cells (HUVEC); experiment: Trypan blue viability count in HUVEC; conditions: HUVEC, 10 μM, 48 h, relative to vehicle
Procedure: as §1

[5] = tested on: human proximal tubule (HPT) cells; experiment: Ethidium homodimer (EthHD) uptake toxicity assay in HPT cells; conditions: 10 μM, 48 h, relative to vehicle
Procedure: as §1, §2

[6] = tested on: cell lines from the skin, one tumorigenic and one non-tumorigenic; experiment: MTT viability in skin cell line pair, tumorigenic and non-tumorigenic
Procedure: as §1, §2

Compound | NF-κB % inhibition (NF-κB) | AP-1 % inhibition (AP-1) | LDH release % Increase VSMC [1] | LDH release % Increase HUVEC [2] | Viable Cells % Decrease VSMC [3] | Viable Cells % Decrease HUVEC [4] | Cell Death (EthHD) % Increase HPT [5] | Viability (MTT) % Decrease HaCaT [6] | Viability (MTT) % Decrease SRB12-p9 [6]
CNc1nc(-c2ccccc2)c(-c2nc3ccccc3c(=O)n2-c2ccccc2OC)s1 [PMCR75] | 61** % | 90** % | 31# % | 15% | 70# % | 41# % | 4% | 46# % | 61# %
COc1ccc(-n2c(-c3cc(-c4ccc(S(C)(=O)=O)cc4)c(N4CCOCC4)s3)nc3ccccc3c2=O)cc1 [PMCR216] | 60** % | 10% | −10% | 0% | 6% | −1% | 152# % | −21% | 16%
O=c1c2ccccc2nc(-c2cc(-c3ccncc3)c(N3CCOCC3)s2)n1-c1ccccc1Cl [PMCR224] | 80** % | 45% | 18% | 28# % | 63# % | 43# % | 266# % | −4% | 13%
Cc1ccccc1-n1c(-c2cc(-c3ccncc3)c(N3CCOCC3)s2)nc2ccccc2c1=O [PMCR188] | 53% | 0% | 148# % | 160# % | 92# % | 60# % | 250# % | 0% | 0%
Cc1nc(Nc2ccc(Cl)cc2)sc1-c1nc2ccccc2c(=O)n1-c1ccccc1Cl [PMCR120] | 60** % | 27% | 11% | 6% | 13% | 16% | 17% | −4% | 85# %
CC(=O)c1ccc(-n2c(-c3cc(-c4ccncc4)c(N4CCOCC4)s3)nc3ccccc3c2=O)cc1 [PMCR242] | 66** % | 84** % | 68# % | 61# % | 90# % | 60# % | 50# % | −28% | 14%
CCOC(=O)Nc1nc(-c2ccccc2)c(-c2nc3ccccc3c(=O)n2-c2ccccc2C)s1 [PMCR25] | 23% | 52** % | 78# % | 59# % | 56# % | 40# % | 34# % | −5% | 28# %
CNc1nc(C)c(-c2nc3ccccc3c(=O)n2-c2ccccc2C)s1 [PMCR19] | 18% | 67** % | 4% | 14% | 29# % | 20% | 63# % | 6% | 21%
Cc1cccc(-n2c(-c3sc(NC(=O)c4ccccc4)nc3-c3ccccc3)nc3ccccc3c2=O)c1 [PMCR45] | 42% | 63** % | 116# % | 123# % | 67# % | 41# % | 49# % | 19% | 20%
Cc1ccccc1-n1c(-c2sc(Nc3ccccc3)nc2C)nc2ccccc2c1=O [PMCR20] | 21% | 73** % | 9% | 17% | 34# % | 28# % | 109# % | 6% | 14%
COc1ccccc1-n1c(-c2cc(-c3ccncc3)c(N3CCOCC3)s2)nc2ccccc2c1=O [PMCR206] | 31% | 33% | 0% | −1% | 0% | 12% | 147# % | 11% | 30# %
O=c1c2ccccc2nc(-c2cc(-c3ccncc3)c(N3CCOCC3)s2)n1-c1ccc(Cl)cc1 [PMCR236] | 68** % | 32% | 91# % | 39# % | 94# % | 60# % | 172# % | 6% | 19%
COc1ccccc1-n1c(-c2cc(-c3ccc(S(C)(=O)=O)cc3)c(N3CCOCC3)s2)nc2ccccc2c1=O [PMCR204] | 55** % | 33% | 164# % | 214# % | 70# % | 65# % | 207# % | −8% | 12%
COC(=O)Nc1nc(-c2ccccc2)c(-c2nc3ccccc3c(=O)n2-c2ccccc2Cl)s1 [PMCR122] | 55** % | 66** % | 20% | 37# % | 45# % | 32# % | 210# % | 6% | 11%
